This series is described as follows: Model experiments with 99Tc complex kept at pH 1. The following applies: complex with 99Tc; kept at pH 1 for days. In kind it is physicochemical.

In the case of `[O]=[Tc]12(=[O])(=[O])[N]3CC[N]1CC[N]2CC3` [Compound 1, [TcO3(tacn)]^+], the “hydrolysis at pH 1” value was “without significant hydrolysis”.

These data come from US8961924B2, “Metal complexes” (University of Zurich, priority 2008, dated 2015).
